From US7776292B2 (priority 2004, dated 2010)
Values joined by “and” are separate entries in the source; they are usually repeats but may differ in a detail not shown here. Equal entries are not always repeated.

Key:
Type in all cases: cell-based
[1] = test system: conventional biological indicator spores
weaponized spores [2] = test system: weaponized spores
[3] = test system: TP 10 (conventional bioindicator spores)
weaponized spores [4] = test system: weaponized spores; remark: listed apart in the source
[5] = test system: conventional biological indicator spores; remark: listed apart in the source
weaponized spores [6] = test system: weaponized spores; remark: listed apart in the source
[7] = test system: conventional biological indicator spores; remark: listed apart in the source
weaponized spores [8] = test system: weaponized spores; remark: listed apart in the source
weaponized spores [9] = test system: weaponized spores; remark: listed apart in the source
weaponized spores [10] = test system: weaponized spores; remark: listed apart in the source

With `[O][Cl+][O-]` [chlorine dioxide] the “filters with viable spores/filters, Humidification time 1 hour” value [1] was 0/2, the “filters with viable spores/filters, Humidification time 2 hours” value [1] was 0/2 and the “filters with viable spores/filters, Humidification time 3 hours” value [1] was 0/2. The “filters with viable spores/filters, ClO2 Concentration 500 ppm” value (weaponized spores [2]) was 3/4 and 2/2; and 2/2, the “filters with viable spores/filters, ClO2 Concentration 1000 ppm” value (weaponized spores [2]) was 0/2 and the “filters with viable spores/filters, ClO2 Concentration 2500 ppm” value (weaponized spores [2]) was 0/2. For the same molecule, the “viable spore count, ClO2 Concentration 500 ppm” value (weaponized spores [2]) was 1.43 × 10^3, the “viable spores after Cycle 1” value [3] was 4.3 × 10^5 and the “viable spores after Cycle 2” value [3] was 1.3 × 10^3. For the same molecule, the “viable spores after Cycle 3” value [3] was 7.2 × 10^2, the “viability in culture, Humidification Time 1 hour” value (weaponized spores [4]) was “Positive” and the “viability in culture, Humidification Time 2 hours” value (weaponized spores [4]) was “Positive”. The “viability in culture, Humidification Time 3 hours” value (weaponized spores [4]) was “Positive”, the “filters with viable spores/filters, ClO2 Concentration 500 ppm” value [5] was 0/2 and the “filters with viable spores/filters, ClO2 Concentration 1000 ppm” value [5] was 0/2. The “filters with viable spores/filters, ClO2 Concentration 2500 ppm” value [5] was 0/2, the “10^−4 (Dilution on agar)” value (weaponized spores [6]) was “TNTC” and the “viability in culture, Humidification Time 1 hour” value [7] was “Negative”. For the same molecule, the “viability in culture, Humidification Time 2 hours” value [7] was “Negative”, the “viability in culture, Humidification Time 3 hours” value [7] was “Negative” and the “viable spores after Cycle 1” value (weaponized spores [8]) was 5.7 × 10^4. The “viable spores after Cycle 2” value (weaponized spores [8]) was 0, the “viable spores after Cycle 3” value (weaponized spores [8]) was 3.3 × 10^1 and the “filters with viable spores/filters, Humidification time 1 hour” value (weaponized spores [9]) was 0/2. For the same molecule, the “filters with viable spores/filters, Humidification time 2 hours” value (weaponized spores [9]) was 0/2, the “filters with viable spores/filters, Humidification time 3 hours” value (weaponized spores [9]) was 0/2 and the “filters showing viable spores following decontamination (out of 16)” value (weaponized spores [10]) was “none”.
